Molecular target: T1, γ-secretase (Homo sapiens, UniProt P49768)
T1 construct: endogenous in cells; host or cells: SKNBE2 cells carrying APP 695 wild type
Assay: Screening for γ-secretase-modulating activity (Aβ42 lowering) in SKNBE2 cells carrying the APP 695-wild type
Type: cell-based
Conditions: SKNBE2 cells carrying APP 695-wild type; for EC50: read-out: Aβ 42 lowering EC50; for inhibition at 1 µM: read-out: Aβ % inhibition @ 1 uM
Protocol: Screening was carried out using SKNBE2 cells carrying the APP 695-wild type, grown in DMEM/NUT-mix F12 (HAM) provided by Gibco (cat no. 31330-38) containing 5% Serum/Fe supplemented with 1% non-essential amino acids.
Cells were grown to near confluency.
The screening was performed using the assay as described in Citron et al (1997) Nature Medicine 3: 67.

SMILES	EC50 [nM]	inhibition at 1 µM [%]
CC(C)CC(C(=O)O)c1cc(C(=O)c2cc(Cl)cc(Cl)c2)cc(-c2ccc(C(F)(F)F)cc2)c1 (centres unmarked) [Compound 1, 2-[5-(3,5-Dichloro-benzoyl)-4′-trifluoromethyl-biphenyl-3-yl]-4-methyl-pentanoic acid]	710	
CC(C)CC(C(=O)O)c1cc(Cc2cc(Cl)cc(Cl)c2)cc(-c2ccc(C(F)(F)F)cc2)c1 (centres unmarked) [Compound 2, 2-[5-(3,5-Dichloro-benzyl)-4′-trifluoromethyl-biphenyl-3-yl]-4-methyl-pentanoic acid]	570	
CC(C)CC(C(=O)O)c1cc(Cc2ccc(F)cc2F)cc(-c2ccc(C(F)(F)F)cc2)c1 (centres unmarked) [Compound 3, 2-[5-(2,4-Difluoro-benzyl)-4′-trifluoromethyl-biphenyl-3-yl]-4-methyl-pentanoic acid]	2170	
CC(C)CC(C(=O)O)c1cc(Cc2cnccc2Cl)cc(-c2ccc(C(F)(F)F)cc2)c1 (centres unmarked) [Compound 4, 2-[5-(4-Chloro-pyridin-3-ylmethyl)-4′-trifluoromethyl-biphenyl-3-yl]-4-methyl-pentanoic acid]	2750	
CC(C)CC(C(=O)O)c1cc(Cc2cccc(C(F)(F)F)c2)cc(-c2ccc(C(F)(F)F)cc2)c1 (centres unmarked) [Compound 5, 4-Methyl-2-[4′-trifluoromethyl-5-(3-trifluoromethyl-benzyl)-biphenyl-3-yl]-pentanoic acid]	1130	
CC(C)CC(C(=O)O)c1cc(C(=O)c2ccc(C#N)cc2)cc(-c2ccc(C(F)(F)F)cc2)c1 (centres unmarked) [Compound 8, 2-[5-(4-Cyano-benzoyl)-4′-trifluoromethyl-biphenyl-3-yl]-4-methyl-pentanoic acid]		25
CC(C)CC(C(=O)O)c1cc(C#Cc2ccc(C(F)(F)F)cc2)cc(-c2ccc(C(F)(F)F)cc2)c1 (centres unmarked) [Compound 11, 4-Methyl-2-[4′-trifluoromethyl-5-(4-trifluoromethyl-phenylethynyl)-biphenyl-3-yl]-pentanoic acid]		10
CC(C)CC(C(=O)O)c1cc(C#Cc2ccc(Cl)cc2)cc(-c2ccc(C(F)(F)F)cc2)c1 (centres unmarked) [Compound 12, 2-[5-(4-Chloro-phenylethynyl)-4′-trifluoromethyl-biphenyl-3-yl]-4-methyl-pentanoic acid]		18
CC(C)CC(C(=O)O)c1cc(C#Cc2cc(C(F)(F)F)cc(C(F)(F)F)c2)cc(-c2ccc(C(F)(F)F)cc2)c1 (centres unmarked) [Compound 13, 2-[5-(3,5-Bis-trifluoromethyl-phenylethynyl)-4′-trifluoromethyl-biphenyl-3-yl]-4-methyl-pentanoic acid]		28
CC(C)CC(C(=O)O)c1cc(/C=C/c2ccc(-c3ccccc3)cc2)cc(-c2ccc(C(F)(F)F)cc2)c1 (centres unmarked) [Compound 14, 2-[5-(2-Biphenyl-4-yl-vinyl)-4′-trifluoromethyl-biphenyl-3-yl]-4-methyl-pentanoic acid]	150	
COc1ccc(/C=C/c2cc(-c3ccc(C(F)(F)F)cc3)cc(C(CC(C)C)C(=O)O)c2)cc1 (centres unmarked) [Compound 20, 2-{5-[2-(4-Methoxy-phenyl)-vinyl]-4′-trifluoromethyl-biphenyl-3-yl}-4-methyl-pentanoic acid]	610	
CC(C)CC(C(=O)O)c1cc(CCc2ccc(-c3ccccc3)cc2)cc(-c2ccc(C(F)(F)F)cc2)c1 (centres unmarked) [Compound 24, 2-[5-(2-Biphenyl-4-yl-ethyl)-4′-trifluoromethyl-biphenyl-3-yl]-4-methyl-pentanoic acid]	210	
CC(C)CC(C(=O)O)c1cc(CCc2ccc(C(F)(F)F)cc2)cc(-c2ccc(C(F)(F)F)cc2)c1 (centres unmarked) [Compound 25, 4-Methyl-2-{4′-trifluoromethyl-5-[2-(4-trifluoromethyl-phenyl)-ethyl]-biphenyl-3-yl}-pentanoic acid]	670	
CC(C)CC(C(=O)O)c1cc(CCc2ccc(Cl)cc2)cc(-c2ccc(C(F)(F)F)cc2)c1 (centres unmarked) [Compound 26, 2-{5-[2-(4-Chloro-phenyl)-ethyl]-4′-trifluoromethyl-biphenyl-3-yl}-4-methyl-pentanoic acid]	740	
CC(C)CC(C(=O)O)c1cc(CCc2ccc(F)cc2)cc(-c2ccc(C(F)(F)F)cc2)c1 (centres unmarked) [Compound 27, 2-{5-[2-(4-Fluoro-phenyl)-ethyl]-4′-trifluoromethyl-biphenyl-3-yl}-4-methyl-pentanoic acid]	580	
Cc1ccc(CCc2cc(-c3ccc(C(F)(F)F)cc3)cc(C(CC(C)C)C(=O)O)c2)cc1 (centres unmarked) [Compound 28, 4-Methyl-2-[5-(2-p-tolyl-ethyl)-4′-trifluoromethyl-biphenyl-3-yl]-pentanoic acid]	350	

Next, values leading:

EC50 [nM]	inhibition at 1 µM [%]	SMILES
740		CC(C)CC(C(=O)O)c1cc(Cc2cc(F)cc(F)c2)cc(-c2ccc(C(F)(F)F)cc2)c1 (centres unmarked) [Compound 6, 2-[5-(3,5-Difluoro-benzyl)-4′-trifluoromethyl-biphenyl-3-yl]-4-methyl-pentanoic acid]
	50	CC(C)CC(C(=O)O)c1cc(C(=O)c2cc(F)cc(F)c2)cc(-c2ccc(C(F)(F)F)cc2)c1 (centres unmarked) [Compound 7, 2-[5-(3,5-Difluoro-benzoyl)-4′-trifluoromethyl-biphenyl-3-yl]-4-methyl-pentanoic acid]
	14	CC(C)CC(C(=O)O)c1cc(-c2ccc(C(F)(F)F)cc2)cc(C(O)c2cc(F)cc(F)c2)c1 (centres unmarked) [Compound 9, 2-{5-[(3,5-Difluoro-phenyl)-hydroxy-methyl]-4′-trifluoromethyl-biphenyl-3-yl}-4-methyl-pentanoic acid]
	53	CC(C)CC(C(=O)O)c1cc(C#Cc2cc(F)cc(F)c2)cc(-c2ccc(C(F)(F)F)cc2)c1 (centres unmarked) [Compound 10, 2-[5-(3,5-Difluoro-phenylethynyl)-4′-trifluoromethyl-biphenyl-3-yl]-4-methyl-pentanoic acid]
400		CC(C)CC(C(=O)O)c1cc(/C=C/c2ccc(C(F)(F)F)cc2)cc(-c2ccc(C(F)(F)F)cc2)c1 (centres unmarked) [Compound 15, 4-Methyl-2-{4′-trifluoromethyl-5-[2-(4-trifluoromethyl-phenyl)-vinyl]-biphenyl-3-yl}-pentanoic acid]
660		Cc1ccc(/C=C/c2cc(-c3ccc(C(F)(F)F)cc3)cc(C(CC(C)C)C(=O)O)c2)cc1 (centres unmarked) [Compound 16, 4-Methyl-2-[5-(2-p-tolyl-vinyl)-4′-trifluoromethyl-biphenyl-3-yl]-pentanoic acid]
360		CC(C)CC(C(=O)O)c1cc(/C=C/c2ccc(Cl)cc2)cc(-c2ccc(C(F)(F)F)cc2)c1 (centres unmarked) [Compound 17, 2-{5-[2-(4-Chloro-phenyl)-vinyl]-4′-trifluoromethyl-biphenyl-3-yl}-4-methyl-pentanoic acid]
390		CC(C)CC(C(=O)O)c1cc(/C=C/c2ccc(F)cc2)cc(-c2ccc(C(F)(F)F)cc2)c1 (centres unmarked) [Compound 18, 2-{5-[2-(4-Fluoro-phenyl)-vinyl]-4′-trifluoromethyl-biphenyl-3-yl}-4-methyl-pentanoic acid]
450		CC(C)CC(C(=O)O)c1cc(/C=C/c2cc(F)cc(F)c2)cc(-c2ccc(C(F)(F)F)cc2)c1 (centres unmarked) [Compound 19, 2-{5-[2-(3,5-Difluoro-phenyl)-vinyl]-4′-trifluoromethyl-biphenyl-3-yl}-4-methyl-pentanoic acid]
	34	CC(C)CC(C(=O)O)c1cc(/C=C\c2ccc(Cl)cc2)cc(-c2ccc(C(F)(F)F)cc2)c1 (centres unmarked) [Compound 21, 2-{5-[2-(4-Chloro-phenyl)-vinyl]-4′-trifluoromethyl-biphenyl-3-yl}-4-methyl-pentanoic acid]
	46	CC(C)CC(C(=O)O)c1cc(/C=C\c2ccc(C(F)(F)F)cc2)cc(-c2ccc(C(F)(F)F)cc2)c1 (centres unmarked) [Compound 22, 4-Methyl-2-{4′-trifluoromethyl-5-[2-(4-trifluoromethyl-phenyl)-vinyl]-biphenyl-3-yl}-pentanoic acid]
	72	CC(C)CC(C(=O)O)c1cc(/C=C/c2cc(C(F)(F)F)cc(C(F)(F)F)c2)cc(-c2ccc(C(F)(F)F)cc2)c1 (centres unmarked) [Compound 23, 2-{5-[2-(3,5-Bis-trifluoromethyl-phenyl)-vinyl]-4′-trifluoromethyl-biphenyl-3-yl}-4-methyl-pentanoic acid]
410		CC(C)CC(C(=O)O)c1cc(CCc2cc(F)cc(F)c2)cc(-c2ccc(C(F)(F)F)cc2)c1 (centres unmarked) [Compound 29, 2-{5-[2-(3,5-Difluoro-phenyl)-ethyl]-4′-trifluoromethyl-biphenyl-3-yl}-4-methyl-pentanoic acid]

From patent US8692017B2, “Carbon linked modulators of gamma-secretase” (Janssen Pharmaceutica, N.V., priority 2007, dated 2014)
